The Kd is a measure of binding affinity in units of concentration.

“Also recorded” adds a separate entry of the source.

Data on three compounds can be found in US12582660B2, “Inhibitors of the RAS oncoprotein, methods of making and methods of use thereof” (University of Louisville Research Foundation, Inc., priority 2018, dated 2026).

The target in series [1] is recombinant K-RAS12v protein (Homo sapiens, UniProt P01116, G12V). In words: Thermofluor direct binding assay. Conditions: for Thermofluor curve shift (direct binding): 200 uM compound/5 uM protein, K-RAS12v loaded with gamma GTPS. How it is done: Direct binding of F3/F3a derivative to recombinant K-RAS protein. Thermofluor assays were performed to assay whether direct interactions could be detected between recombinant K-RAS protein and compound F3, or recombinant K-RAS protein and compound JAB-6-5. Recombinant K-RAS12v protein was loaded with gamma GTPS and used in binding assays with a ratio of: 200 uM compound/5 uM protein. Control compound C4 is targeted at a different protein and was not expected to bind RAS. The results are the derivative of three assays performed in triplicate. […] A predicted kD can be extrapolated from the curve: ˜25 uM at 55.5° C.
For orientation: In DSF a fluorescence change marks the thermal transition of the protein.

Series [2] has as its system Mia-Paca-2. In words: 3-D soft agar drug screening, Mia-Paca-2. It counts as cell-based. The following applies: Mia-Paca-2, K12C, Pancreatic. How it is done:
(§1) The technical process of 3-D culture involves preparing molten agar at 1.6% in culture medium and adding serum to 10%. 1 ml of this agar medium is plated per well in a 12 well plate and allowed to set. This is the bottom agar and prevents any cells added to the well from touching the plastic bottom of the plate, ensuring everything remains suspended. Meanwhile the remaining stock of agar medium is kept at 42° C. to prevent setting. Target cells are then trypsinized into a single cell suspension and mixed with normal medium/drug combination. ⅔ volume molten agar medium is then added and the mixture plated onto the bottom agar. The agar/medium sets as it cools, suspending the cells in a 3D environment. Typically, within 2 weeks, tumor spheres (colonies) will form suspended in the agar. The number of colonies, or even the size, may be counted under an inverted microscope and quantified to assay tumor sphere inhibition.
(§2) The compounds synthesized were tested in the 3-D soft agar drug screening, including F3, JAB-6-176 and JAB-8-60. All the compounds tested suppressed 3-D soft agar growth, but had little effect on normal 2-D growth. […] In Table 2, below, are listed different cell lines, with the results of testing F3 in the “REMARKS” column. All the cell lines are common and publicly available from the ATCC repository (www.atcc.org/en/Products/Cells_and_Microorganisms/Cell_Lines.aspx). […]

For series [3], the system named is A549. As to the kind of experiment: 3-D soft agar drug screening, A549. It counts as cell-based. The following applies: A549, K12S, Lung. As for the experimental part:
as §1, §2

For series [4], the system named is Panc-1. In words: 3-D soft agar drug screening, Panc-1. It counts as cell-based. The following applies: Panc-1, K12D, pancreatic. How it is done: as §1, §2
The test system of series [5] is H1299. As to the kind of experiment: 3-D soft agar drug screening, H1299. Type of series: cell-based. Conditions: H1299, Hras61, Lung. How it is done:
as §1, §2

The test system of series [6] is CaoV3. In words: 3-D soft agar drug screening, CaoV3. Type of series: cell-based. The following applies: CaoV3, NF1mute, ovarian. How it is done:
as §1, §2

Series [7] relates to S462.TY. In words: 3-D soft agar drug screening, S462.TY. Type of series: cell-based. Conditions: NF1-mute, MPNST. How it is done: as §1, §2
Series [8] relates to A375. In words: 3-D soft agar drug screening, A375. It counts as cell-based. Conditions: A375, B-RAF mute, melanoma; 2 uM. How it is done: as §1, §2
The subject of series [9] is HTB-185. In words: 3-D soft agar drug screening, HTB-185. It counts as cell-based. The following applies: HTB-185, DAB2IP deficient, Medulloblastoma. As for the experimental part:
as §1, §2

The test system of series [10] is MDA-MB-231. In words: 3-D soft agar drug screening, MDA-MB-231. The following applies: MDA-MB-231, Kras13D and deficient for NF1, Breast; cells don't grow well in soft agar. It counts as cell-based. As for the experimental part: as §1, §2
For series [11], the system named is SK-RC-45. In words: 3-D soft agar drug screening, SK-RC-45. It counts as cell-based. The following applies: SK-RC-45, EGFR++++, kidney. As for the experimental part:
as §1, §2

In series [12] the test system is HL-60. In words: Suspension culture growth, HL-60. Type of series: cell-based. Conditions: HL-60, NRASQ61L, AML. How it is done:
(§3) The compounds synthesized were tested in the 3-D soft agar drug screening, including F3, JAB-6-176 and JAB-8-60. All the compounds tested suppressed 3-D soft agar growth, but had little effect on normal 2-D growth. […] In Table 2, below, are listed different cell lines, with the results of testing F3 in the “REMARKS” column. All the cell lines are common and publicly available from the ATCC repository (www.atcc.org/en/Products/Cells_and_Microorganisms/Cell_Lines.aspx). NF1 mute are cells with defects in the NF1 gene (a negative regulator of RAS) causing hyper-activation of the wild type form of RAS. The same is true for DAB2IP deficient cells. EGFR+++ cells overexpress the EGFR receptor, which also results in the hyper-activation of wild type RAS,

In series [13] the test system is tumor cells. In words: 3-D soft agar drug screening (cell line not stated). Type of series: cell-based. How it is done:
as §1, §2

The nature of series [14]: Normal 2-D growth (cell line not stated). Type of series: cell-based. As for the experimental part: as §3
Series [15] deals with A549 K-RAS driven lung tumor cell line. As to the kind of experiment: Normal growth/survival in 2-D culture on plastic, A549. The following applies: 10 uM. Type of series: cell-based. As for the experimental part: (§4) Effects of the small molecule on growth in soft agar of A549 K-RAS driven lung tumor cell line and K-RAS driven pancreatic cancer cell line MiaPaCa-2 is shown. 0=carrier (DMSO). P values are less than 0.05, FIG. 5 and FIG. 6 show the effects of 10 uM of F3 on normal growth/survival in 2-D culture on plastic of the same cells. […] FIG. 7 is a graph showing that F3 is also effective against wild-type driven tumor cells, while FIG. 8 is a graph showing normal growth/survival in 2-D culture on plastic of the same cells.

Series [16] relates to K-RAS driven pancreatic cancer cell line MiaPaCa-2. In words: Normal growth/survival in 2-D culture on plastic, MiaPaCa-2. It counts as cell-based. Conditions: 10 uM. As for the experimental part:
as §4

The test system of series [17] is wild-type RAS driven tumor cells. In words: Soft agar growth of wild-type RAS driven tumor cells. It counts as cell-based. As for the experimental part: as §4
The subject of series [18] is Mia-Paca-2 cells. In words: Anoikis assay on polyHEMA treated wells, trypan blue exclusion. Type of series: cell-based. The following applies: after 48 hours. How it is done: RAS activation leads to resistance to anoikis and inhibiting RAS function re-sensitizes […] cells to anoikis. The RAS/RalGDS pathway has been implicated as a significant component of RAS mediated anoikis suppression. […] After 48 hours the cultures were assayed for cell death by trypan blue exclusion.

For series [19], the system named is NCI-H441 (Lung cancer) xenograft tumors. As to the kind of experiment: Tumor inhibition of xenografts, NCI-H441. Type of series: in vivo. Conditions: NCI-H441 xenograft in NRG mice. How it is done: (§5) Compound F3 was tested in vivo, using cell line xenograft tumors in NRG mice. Cell lines used included Mia-Paca-2 (Pancreatic cancer), and NCI-H441 (Lung cancer). […] The results for Mia-Paca-2 are shown in FIG. 14 and FIG. 15 ([…] treated with DMSO/PBS (carrier) or F3 drug at 12 mg/kg every three days).

Series [20] has as its system Mia-Paca-2 (Pancreatic cancer) xenograft tumors. In words: Tumor inhibition of xenografts, Mia-Paca-2. Conditions: Mia-Paca-2 xenograft; 12 mg/kg every three days; P value 0.014. Type of series: in vivo, NRG mice. How it is done: as §5
Series [21] is described as follows: Preliminary in vivo toxicity assay. The arrangement: species or system NRG mice. Conditions: i.p. 10 mg/kg every other day for 2 weeks. As for the experimental part:
A preliminary in vivo toxicity assay was performed on F3. NRG mice were i.p. injected with 10 mg/kg of drug every other day for 2 weeks.

Sequence of recombinant K-RAS12v protein (P01116 1-185 isoform P01116-2 G12V): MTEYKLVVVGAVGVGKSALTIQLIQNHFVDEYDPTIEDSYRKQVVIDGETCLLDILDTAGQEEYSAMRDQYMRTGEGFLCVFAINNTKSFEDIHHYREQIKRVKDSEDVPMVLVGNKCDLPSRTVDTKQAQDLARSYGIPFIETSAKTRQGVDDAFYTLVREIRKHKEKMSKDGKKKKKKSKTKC

Regarding `Cc1ccc(NC(=O)CN(C)CC(=O)Nc2cccc(F)c2)cc1S(=O)(=O)N1CCCCCC1` [Compound F3, N-(3-(Azepan-1-ylsulfonyl)-4-methylphenyl)-2-((2-((3-fluorophenyl)amino)-2-oxoethyl)(methyl)amino)-acetamide], the “Thermofluor curve shift (direct binding)” value in series [1] is “significant curve shift”. Besides, the Kd in [1] (at 55.5° C., read-out: predicted kD extrapolated from the curve) was about 25 µM. Besides, the Soft agar growth result is listed as “specific inhibition; also recorded: Soft agar growth inhibited” in [2]; “specific inhibition; also recorded: Soft agar growth inhibited” in series [3]; “Soft agar growth inhibited” in [4]; “Soft agar growth inhibited” in [5]; “Soft agar growth inhibited” in [6]; “Soft agar growth inhibited” in series [7]. Also, the Soft agar growth in series [8] is on record as 10 uM, no effect at 2 uM; in series [9], “Soft agar growth inhibited”; in series [10] it was “inhibited”; in [11] it was “Soft agar growth inhibited”. Moreover, the Growth in suspension result in series [12] was “inhibited”. Moreover, in series [13], the “3-D soft agar growth” value was “suppressed”. Further, the “normal 2-D growth” value in [14] is listed as “little effect”. The “cell growth in 2-D culture on plastic” value in series [15] and in series [16] was “no effect” throughout. In addition, the “Effect against wild-type driven tumor cells” value in [17] is reported as “effective”. Further, the “anoikis (cell death by trypan blue exclusion)” value in [18] is “induced high levels of anoikis”. For the same compound, the “tumor volume as compared to controls” value in [19] is given as “reduction in tumor volume”; in series [20], “approximately half the volume”. Besides, the “signs of pain or distress” value in series [21] is given as “No obvious signs of pain or distress”. Besides, the weight loss result in series [21] is recorded as “no weight loss”.

As for `Cc1ccc(NC(=O)CN(C)CC(=O)Nc2cccc(F)c2)cc1S(=O)(=O)N1CCCC1` [JAB-6-5], in [1], the “Thermofluor curve shift (direct binding)” value was “significant curve shift”.

Consider `CCCc1ccc(NC(=O)CN(C)CC(=O)Nc2cccc(F)c2)cc1S(=O)(=O)N1CCCCCC1` [JAB-6-176], for which, in [13], the “3-D soft agar growth” value is “suppressed”. In addition, the “normal 2-D growth” value in series [14] was “little effect”.
